Measurements reported in patent US20180153840A1, “THE COMPOSITIONS OF GLYCEROL AND /OR NON-TOXIC AMINO ACIDS FOR INHIBITING AND DESTROYING BIOFILM, INCLUDING RELATED METHODS” (priority 2015, published 2018).
Like-named read-outs stand apart in the source and are kept apart here.

Legend:
[1] = tested on: bacterial biofilms; test: Bacterial biofilm assays (sustained inhibition and/or disruption); assay type: cell-based, Staphylococcus aureus; settings: individually, about 0.1 to about 5.0% weight to volume (cystathionine 0.2%); at least one of the two assays
Procedure: (§1) For fungal biofilm assays, all solutions were prepared in RPMI 1640 medium. All bacterial biofilm solutions were prepared in Trypic Soy Broth (TSB), supplemented with 1% glucose (henceforth referred to as TSB-G). All subsequent procedures were performed in a manner that maintained sterility. A solution of each amino acid to be tested was prepared in weight to volume concentrations ranging from 0.1-5.0%. Amino acids were also tested in combinations. Compound solutions were homogenized with gentle agitation in the dark (4° C., 24 hours) before use.
(§2) All biofilm assays were performed using 384-well non-tissue culture treated polystyrene plates. The fungal species tested are as follows: Candida albicans, Candida guilliermondii Candida parapsilosis, Candida glabrata, Candida tropicalis and Candida dubliniensis. The bacterial species tested are as follows: Staphylococcus aureus (standard wild type and methicillin-resistant strain USA300), Escherichia coli, Pseudomonas aeruginosa and Staphylococcus epidermidis.
(§3) Bacterial strains were streaked on Blood Agar plates (5% sheep blood in Tryptic Soy Broth) and incubated at 37° C. for 24 hours. A single colony from each strain to be tested was inoculated in a TSB broth and grown for 12 hours, at 37° C. with shaking (225 rpm).
(§4) For the bacterial biofilm inhibition assays, 1 μL of saturated overnight cell culture was added to either 80 μL of TSB-G, or TSB-G supplemented with the amino acid compound solution to be tested, in a 384-well plate. The cells were allowed to adhere to the plate for 60 minutes at 37° C. without shaking. The media was carefully aspirated and 80 μL of TSB-G, or TSB-G supplemented with the amino acid compound solution was added to the plate. The plate was further incubated for 24 hours at 37° C. without shaking. Media was carefully aspirated and the biofilm was measured for bacterial cell concentration by optical density at 600 nm. Eight or twelve replicates were performed for each tested condition and the reported values were normalized to the control (TSB-G media only).
(§5) For the bacterial biofilm disruption assays, 80 μL of TSB-G was added to the plate, along with 1 μL of overnight cell culture. The cells were allowed to adhere to the plate for 60 minutes at 37° C. without shaking. The media was carefully aspirated and 80 μL of TSB-G was added to the plate. The plate was further incubated for 24 hours at 37° C. without shaking. Media was carefully aspirated from the mature biofilm and 80 μL of TSB-G, or TSB-G supplemented with the amino acid to be tested, was gently added to the plate. The plate was further incubated for 24 hours at 37° C. without shaking. Media was aspirated and the biofilm was measured for bacterial cell concentration by optical density at 600 nm. Twelve replicates were performed for each tested condition and the reported values were normalized to the control (TSB-G media only).

[2] = tested on: fungal biofilms; test: Fungal biofilm assays (sustained inhibition and/or disruption); assay type: cell-based, Candida albicans; settings: at least one of the two assays (sustained inhibition and/or disruption); for anti-biofilm properties against fungal biofilms: administered individually
Procedure: as §1, §2
(§6) Fungal strains were streaked on Yeast Peptone Dextrose (YPD) agar plates and incubated at 30° C. for 48 hours. A single colony from each strain to be tested was inoculated into YPD broth and grown for 12 hours, at 30° C., shaking at 225 rpm. For the fungal biofilm inhibition assay, 1 μl of saturated overnight cell culture was added to either 80 μL of RPMI-1640 or RPMI-1640 supplemented with the amino acid compound solution to be tested, in a 384-well plate. The cells were allowed to adhere to the plate for 90 minutes at 37° C. with shaking (350 rpm). Loosely bound cells were washed once with phosphate buffered saline (PBS) and 80 ul of RPMI-1640, or RPMI-1640 supplemented with the amino acid compound solution was added to the plate. The plate was further incubated for 24 hours at 37° C. with shaking (350 rpm). Media was carefully aspirated and the biofilm was measured for fungal cell concentration by optical density at 600 nm. Twelve replicates were performed for each tested condition and the reported values were normalized to the control (RPMI-1640 media only).
(§7) For the fungal biofilm disruption assays, 80 μL of RPMI-1640 was added to the plate, along with 1 μL of overnight cell culture. The cells were allowed to adhere to the plate for 90 minutes at 37° C. with shaking (350 rpm). Loosely bound cells were washed once with PBS and 80 μL of RPMI-1640 was added to the plate. The plate was further incubated for 24 hours at 37° C. with shaking (350 rpm). Media was carefully aspirated from the mature biofilm and 80 μL of RPMI-1640, or RPMI-1640 supplemented with the amino acid compound solution to be tested, was gently added to the plate. The plate was further incubated for 24 hours at 37° C. with shaking (350 rpm). Media was carefully aspirated and the biofilm was measured for fungal cell concentration by optical density at 600 nm. Twelve replicates were performed for each tested condition and the reported values are normalized to the control (RPMI-1640 media only).

[3] = tested on: C. albicans biofilm; test: Fungal biofilm inhibition assay; assay type: cell-based, Candida albicans; settings: sustained inhibition assay, 1% amino acid, p≤0.001
Procedure: as §1, §2, §6

[4] = tested on: bacterial and fungal biofilms; test: In vitro testing on bacterial and fungal biofilms; assay type: cell-based; settings: for effect on bacterial and fungal biofilm (in words): in vitro
Procedure: as §1, §2, §6, §7, §3
as §4, with “nm.” for “nm. Eight or twelve replicates were performed for each tested condition and the reported values were normalized to the control (TSB-G media only).”

[5] = tested on: C. albicans biofilm; test: Fungal biofilm disruption assay; assay type: cell-based, Candida albicans; settings: 1% amino acid, p≤0.001
Procedure: as §1, §2, §7

[6] = tested on: S. aureus biofilm; test: Bacterial biofilm disruption assay; assay type: cell-based; settings: Staphylococcus aureus, read-out: Reduce B Biofilm
Procedure: as §1, §2, §3, §5

[7] = tested on: S. aureus biofilm; test: Bacterial biofilm inhibition assay; assay type: cell-based, Staphylococcus aureus; settings: sustained inhibition assay; S. aureus; 1% amino acid; p≤0.001
Procedure: as §1, §2, §3, §4

[8] = Procedure: as §1, §2
[9] = tested on: bacteria (S. aureus) biofilm and fungal (C. albicans) biofilm; test: Sustained inhibition biofilm assay, bacterial and fungal together (Table C: Both/Neutral); assay type: cell-based, Staphylococcus aureus; Candida albicans; settings: 1% amino acid
Procedure: as §1, §2
Fungal strains were streaked on Yeast Peptone Dextrose (YPD) agar plates and incubated at 30° C. for 48 hours. A single colony from each strain to be tested was inoculated into YPD broth and grown for 12 hours, at 30° C., shaking at 225 rpm. For the fungal biofilm inhibition assay, 1 μl of saturated overnight cell culture was added to either 80 μL of RPMI-1640 or RPMI-1640 supplemented with the amino acid compound solution to be tested, in a 384-well plate. The cells were allowed to adhere to the plate for 90 minutes at 37° C. with shaking (350 rpm). […] Media was carefully aspirated and the biofilm was measured for fungal cell concentration by optical density at 600 nm. […]
For the bacterial biofilm inhibition assays, 1 μL of saturated overnight cell culture was added to either 80 μL of TSB-G, or TSB-G supplemented with the amino acid compound solution to be tested, in a 384-well plate. […] Media was carefully aspirated and the biofilm was measured for bacterial cell concentration by optical density at 600 nm. […]

[10] = tested on: bacteria (S. aureus) biofilm and fungal (C. albicans) biofilm; test: Disruption biofilm assay, bacterial and fungal together (Table D: Both/Neutral); assay type: cell-based, Staphylococcus aureus; Candida albicans; settings: 1% amino acid
Procedure: as §1, §2
as §7, with “Twelve replicates were performed for each tested condition and the reported values are normalized to the control (RPMI-1640 media only).” left out
For the bacterial biofilm disruption assays, 80 μL of TSB-G was added to the plate, along with 1 μL of overnight cell culture. […] Media was aspirated and the biofilm was measured for bacterial cell concentration by optical density at 600 nm. […]

[11] = disruption assay, S. aureus, 1% amino acid, p≤0.001

Structure (SMILES) | anti-biofilm properties against bacterial biofilms [1] | anti-biofilm properties against fungal biofilms [2] | Reduce F Biofilm [3] | effect on bacterial and fungal biofilm (in words) [4] | Reduce B Biofilm [7] | inhibition at 1 % [6, 11] [%] | Reduce Both [9] | Reduce F Biofilm [5] | Reduce Both [10] | other results
NCCO [Ethanolamine, ethanolamine] | anti-biofilm properties against bacterial biofilms | anti-biofilm properties against fungal biofilms | • (a single dot (●) signifies an effect in a range of about 10 to about 30% change) | – | – | – | – | – | – | –
CC(C)[C@H](N)C(=O)O [Valine, L-valine] | – | – | – | promote bacterial and fungal biofilm | – | – | – | – | – | support (improve) fungal biofilm growth [2]: support (improve) fungal biofilm growth; Promote F Biofilm [5]: • (a single dot (●) signifies an effect in a range of about 10 to about 30% change); Promote F Biofilm [3]: • (a single dot (●) signifies an effect in a range of about 10 to about 30% change)
O=C(O)[C@@H]1C[C@@H](O)CN1 [Hydroxyproline, Trans-4-hydroxy-L-proline] | anti-biofilm properties against bacterial biofilms | anti-biofilm properties against fungal biofilms | • (a single dot (●) signifies an effect in a range of about 10 to about 30% change) | – | • (a single dot (●) signifies an effect in a range of about 10 to about 30% change) | – | – | – | – | inhibition at 1 % [6]: 10 to 30%
N[C@@H](CCSC[C@H](N)C(=O)O)C(=O)O [Cystathionine, L-cystathionine] | anti-biofilm properties against bacterial biofilms | – | – | – | – | – | – | – | – | inhibition at 0.2 % ([6]; disruption assay, S. aureus, 0.2% amino acid): 10 to 30%; solubility (in words) [8]: limited solubility
Cn1cncc1C[C@H](N)C(=O)O [3-Methylhistidine, 3-methyl-L-histidine] | anti-biofilm properties against bacterial biofilms | – | – | – | – | 10 to 30 | – | – | – | support (improve) fungal biofilm growth [2]: support (improve) fungal biofilm growth; Promote F Biofilm [5]: • (a single dot (●) signifies an effect in a range of about 10 to about 30% change); Promote F Biofilm [3]: • (a single dot (●) signifies an effect in a range of about 10 to about 30% change)
Cn1cnc(C[C@H](N)C(=O)O)c1 [1-Methylhistidine, 1-methyl-L-histidine] | – | – | – | – | – | – | – | – | – | neutral, effect on bacterial or fungal biofilms ([4]; both assays (sustained inhibition and disruption)): no effect on bacterial or fungal biofilms; solubility (in words) [8]: limited solubility
N[C@@H](CS)C(=O)O [Cysteine, L-cysteine] | – | – | •• (two dots (●●) signifies an effect of greater than 30% change) | – | •• (two dots (●●) signifies an effect of greater than 30% change) | > 30 | •• (two dots (●●) signifies an effect of greater than 30% change) | •• (two dots (●●) signifies an effect of greater than 30% change) | •• (two dots (●●) signifies an effect of greater than 30% change) | –
N[C@@H](CC(=O)O)C(=O)O [Aspartic Acid, L-aspartic acid] | – | – | •• (two dots (●●) signifies an effect of greater than 30% change) | very active against biofilm | •• (two dots (●●) signifies an effect of greater than 30% change) | > 30 | •• (two dots (●●) signifies an effect of greater than 30% change) | •• (two dots (●●) signifies an effect of greater than 30% change) | •• (two dots (●●) signifies an effect of greater than 30% change) | –
N[C@@H](COP(=O)(O)O)C(=O)O [Phosphoserine, O-phospho-L-serine] | anti-biofilm properties against bacterial biofilms | anti-biofilm properties against fungal biofilms | – | – | – | 10 to 30 | – | • (a single dot (●) signifies an effect in a range of about 10 to about 30% change) | – | –
N[C@@H](CCC(=O)O)C(=O)O [Glutamic Acid, L-glutamic acid] | – | – | •• (two dots (●●) signifies an effect of greater than 30% change) | very active against biofilm | •• (two dots (●●) signifies an effect of greater than 30% change) | > 30 | •• (two dots (●●) signifies an effect of greater than 30% change) | •• (two dots (●●) signifies an effect of greater than 30% change) | •• (two dots (●●) signifies an effect of greater than 30% change) | –
